The nature of data set [1]: Decrease in amplitude of contraction in rabbit intestine at 10 uM after 5 mins. Type of data set: functional, Oryctolagus cuniculus. Details: scale not given: the % may be the effect or the level left.
The test system of data set [2] is Rattus norvegicus. Description: Hypotensive activity in po dosed anaesthetized normotensive Wistar rat assessed as decrease in systolic pressure administered as single dose after 5 mins. Type of data set: functional, organism-based.
For data set [3], the system named is Rattus norvegicus. Description: Effect on electrocardiogram in anaesthetized Wistar rat assessed as change in QRS interval at 1 mg/kg, iv after 15 mins by electrocardiography. Type of data set: functional.
Data set [4] has as its system Rattus norvegicus. Description: Antiarrhythmic activity against adrenaline-induced arrhythmia in po dosed anaesthetized Wistar rat assessed as inhibition of premature ventricular beats pretreated 60 mins prior to adrenaline challenge. To be noted: Heart. Type of data set: functional.
The test system of data set [5] is Rattus norvegicus. Description: Effect on electrocardiogram in anaesthetized Wistar rat assessed as change in QRS interval at 1 mg/kg, iv after 1 min by electrocardiography. Type of data set: functional.
Data set [6] relates to Rattus norvegicus. Description: Effect on electrocardiogram in anaesthetized Wistar rat assessed as change in Q-T interval at 1 mg/kg, iv after 5 mins by electrocardiography. Type of data set: functional.
The test system of data set [7] is Rattus norvegicus. Description: Hypotensive activity in anaesthetized normotensive Wistar rat assessed as reduction in methoxamine-induced pressor response at 1 mg/kg, iv after 5 mins. Type of data set: functional, organism-based. The arrangement: dose 1 mg/kg.
Data set [8] has as its system Rattus norvegicus. Description: Effect on electrocardiogram in anaesthetized Wistar rat assessed as change in QRS interval at 1 mg/kg, iv after 5 mins by electrocardiography. Type of data set: functional.
The subject of data set [9] is Rattus norvegicus. Description: Effect on heart rate in anaesthetized Wistar rat assessed as number of beats per minute at 1 mg/kg, iv after 5 mins by electrocardiography. Type of data set: functional.
Data set [10] deals with Rattus norvegicus. Description: Effect on heart rate in anaesthetized Wistar rat assessed as number of beats per minute at 1 mg/kg, iv after 1 min by electrocardiography. Type of data set: functional.
For data set [11], the system named is Rattus norvegicus. Description: Hypotensive activity in po dosed anaesthetized normotensive Wistar rat assessed as decrease in diastolic pressure administered as single dose after 5 mins. Type of data set: functional, organism-based.
Data set [12] deals with Rattus norvegicus. Description: Hypotensive activity in anaesthetized normotensive Wistar rat assessed as reduction in epinephrine-induced pressor response at 1 mg/kg, iv after 5 mins. Type of data set: functional, organism-based. The arrangement: dose 1 mg/kg.
Data set [13] has as its system Rattus norvegicus. Description: Effect on electrocardiogram in anaesthetized Wistar rat assessed as change in P-Q-interval at 1 mg/kg, iv after 5 mins by electrocardiography. Type of data set: functional.
Data set [14] relates to Rattus norvegicus. Description: Effect on electrocardiogram in anaesthetized Wistar rat assessed as change in P-Q interval at 1 mg/kg, iv after 1 min by electrocardiography. Type of data set: functional.
The subject of data set [15] is Rattus norvegicus. Description: Effect on electrocardiogram in anaesthetized Wistar rat assessed as change in P-Q-interval at 1 mg/kg, iv after 15 mins by electrocardiography. Type of data set: functional.
Data set [16] concerns Rattus norvegicus. Description: Antiarrhythmic activity against adrenaline-induced arrhythmia in iv dosed anaesthetized Wistar rat assessed as inhibition of premature ventricular beats pretreated 60 mins prior to adrenaline challenge. Type of data set: functional. To be noted: Heart.
A short description of data set [17]: Acute toxicity in iv dosed anaesthetized Wistar rat. Type of data set: organism-based. Particulars: in vivo.
The test system of data set [18] is Rattus norvegicus. Description: Hypotensive activity in anaesthetized normotensive Wistar rat assessed as decrease in diastolic pressure at 0.25 to 1 mg/kg, iv administered as single dose after 5 mins. Type of data set: functional. Details: scale not given: the % may be the effect or the level left. Particulars: dose mg/kg 0.25-1.
Data set [19] has as its system Rattus norvegicus. Description: Hypotensive activity in anaesthetized normotensive Wistar rat assessed as reduction in norepinephrine induced pressor response at 1 mg/kg, iv after 5 mins. Details: dose 1 mg/kg. Type of data set: functional, organism-based.
Data set [20] deals with Rattus norvegicus. Description: Hypotensive activity in anaesthetized normotensive Wistar rat assessed as decrease in systolic pressure at 0.125 to 1 mg/kg, po administered as single dose after 5 mins. Type of data set: functional, organism-based.
For data set [21], the system named is Rattus norvegicus. Description: Hypotensive activity in anaesthetized normotensive Wistar rat assessed as decrease in systolic pressure at 0.25 to 1 mg/kg, iv administered as single dose after 5 mins. Type of data set: functional. The arrangement: scale not given: the % may be the effect or the level left. Particulars: dose mg/kg 0.25-1.
Data set [22] relates to Rattus norvegicus. Description: Hypotensive activity in anaesthetized normotensive Wistar rat assessed as decrease in diastolic pressure at 0.125 to 1 mg/kg, po administered as single dose after 5 mins. Type of data set: functional, organism-based.
A short description of data set [23]: Increase in frequency of contraction in rabbit intestine at 1 nM after 5 mins. Type of data set: functional, Oryctolagus cuniculus.
Data set [24] has as its system Rattus norvegicus. Description: Hypotensive activity in anaesthetized normotensive Wistar rat assessed as decrease in systolic pressure at 0.625 mg/kg, iv administered as single dose after 5 mins. Type of data set: functional. The arrangement: scale not given: the % may be the effect or the level left.
In data set [25] the test system is Rattus norvegicus. Description: Hypotensive activity in anaesthetized normotensive Wistar rat assessed as decrease in systolic pressure at 0.125 to 1 mg/kg, iv administered as single dose after 5 mins. The arrangement: scale not given: the % may be the effect or the level left. Type of data set: functional. To be noted: dose mg/kg 0.125-1.
For data set [26], the system named is Rattus norvegicus. Description: Hypotensive activity in anaesthetized normotensive Wistar rat assessed as decrease in diastolic pressure at 0.625 mg/kg, iv administered as single dose after 5 mins. Type of data set: functional. The arrangement: scale not given: the % may be the effect or the level left.
The test system of data set [27] is Rattus norvegicus. Description: Hypotensive activity in anaesthetized normotensive Wistar rat assessed as decrease in diastolic pressure at 0.125 to 1 mg/kg, iv administered as single dose after 5 mins. Type of data set: functional. The arrangement: scale not given: the % may be the effect or the level left. To be noted: dose mg/kg 0.125-1.
For data set [28], the system named is Rattus norvegicus. Description: Hypotensive activity in anaesthetized normotensive Wistar rat assessed as decrease in systolic pressure at 0.625 mg/kg, po administered as single dose after 5 mins. Type of data set: functional, organism-based. The arrangement: dose 0.625 mg/kg.
Data set [29] deals with Rattus norvegicus. Description: Hypotensive activity in anaesthetized normotensive Wistar rat assessed as decrease in diastolic pressure at 0.625 mg/kg, po administered as single dose after 5 mins. Type of data set: functional, organism-based. The arrangement: dose 0.625 mg/kg.

Molecules are shown by their SMILES. Active and inactive are the calls of the source. No cut-off for these calls is given here.

With `COc1ccccc1OCCNC[C@@H](O)COc1cccc2[nH]ccc12`, the Activity in data set [1] worked out at 31%; with Rattus norvegicus [3], 21.7 ms; with Rattus norvegicus [5], 22.3 ms; with Rattus norvegicus [6], 66 ms; in the data set on Rattus norvegicus [8], 21.7 ms; with Rattus norvegicus [9], 310.2 min⁻¹. Further, the Activity is 307.8 min⁻¹ in the data set on Rattus norvegicus [10], 50.7 ms in the data set on Rattus norvegicus [13], 53.7 ms in the data set with Rattus norvegicus [14] and 51.7 ms in the data set on Rattus norvegicus [15]. In addition, the result in the data set on Rattus norvegicus [2] and in the data set on Rattus norvegicus [11] was inactive. Besides, the figures for the ED50 in the data set with Rattus norvegicus [4] and in the data set with Rattus norvegicus [16] were 1.28 mg/kg and 0.43 mg/kg, respectively. The outcome with Rattus norvegicus [7] and with Rattus norvegicus [12] was Active. Besides, in [17], the LD50 (in general, the dose expected to kill half of the subjects tested) was found to be 20.4 mg/kg.
Take `COc1ccccc1OCCNCC(O)COc1cccc2[nH]ccc12` (racemic): the Activity came out at 29% in data set [1]; 26.9 ms with Rattus norvegicus [3]; 28.4 ms with Rattus norvegicus [5]; 69 ms in the data set with Rattus norvegicus [6]; 10% in the data set with Rattus norvegicus [18]; 10% in the data set with Rattus norvegicus [21]. Moreover, the Activity in the data set on Rattus norvegicus [8] amounted to 24.9 ms; in the data set on Rattus norvegicus [9] it was 294.5 min⁻¹; in the data set on Rattus norvegicus [10], 298.7 min⁻¹; in the data set on Rattus norvegicus [13] it was 48.1 ms; in data set [23], 8%; with Rattus norvegicus [14], 47.2 ms. Further, in the data set on Rattus norvegicus [15], the Activity turned out to be 46.2 ms. The ED50 (usually the dose at which the effect has come halfway, by size or by number of responders) in the data set with Rattus norvegicus [4] stood at 0.44 mg/kg; with Rattus norvegicus [16] it was 0.34 mg/kg. In addition, the result in the data set with Rattus norvegicus [19], in the data set on Rattus norvegicus [20], in the data set on Rattus norvegicus [7], in the data set with Rattus norvegicus [22] and in the data set with Rattus norvegicus [12] was Active. The same molecule displayed an LD50 in data set [17] of 20 mg/kg.
As for `COc1ccccc1OCCNC[C@H](O)COc1cccc2[nH]ccc12`, the Activity with Rattus norvegicus [24] was determined as 8%; in the data set with Rattus norvegicus [3] it was 22.7 ms; in the data set with Rattus norvegicus [25] it was 15%; with Rattus norvegicus [5] it was 24.3 ms; in the data set on Rattus norvegicus [6] it was 76.3 ms; in the data set on Rattus norvegicus [8] it was 24.3 ms. Moreover, the Activity with Rattus norvegicus [9] was 291.3 min⁻¹; in the data set with Rattus norvegicus [10], 297.2 min⁻¹; in the data set on Rattus norvegicus [26], 8%; with Rattus norvegicus [27], 14%; in the data set on Rattus norvegicus [13], 49.7 ms; in the data set with Rattus norvegicus [14], 52.3 ms. For the same molecule, the Activity with Rattus norvegicus [15] amounted to 48 ms. Further, the ED50 in the data set on Rattus norvegicus [4] worked out at 0.61 mg/kg; in the data set on Rattus norvegicus [16] it was 0.059 mg/kg. For the same molecule, the result with Rattus norvegicus [19], with Rattus norvegicus [7], with Rattus norvegicus [12], in the data set with Rattus norvegicus [28] and in the data set with Rattus norvegicus [29] was Active. Moreover, the 50% lethal dose (LD50) in data set [17] came to 36.2 mg/kg.

For the origin of these results see ChEMBL document CHEMBL1153880, “Synthesis and adrenolytic activity of 1-(1H-indol-4-yloxy)-3-{[2-(2-methoxyphenoxy)ethyl]amino}propan-2-ol and its enantiomers. Part 1” (Eur J Med Chem, 2009).
